{"source": "the supplement of paper PMC10307832", "assay_in_all_cases": "relative viability (nuclei count vs DMSO), 5 days (fraction); higher = more cells survive", "key": {"[1]": {"compound": "C[C@@H](N)c1ccc(C(=O)Nc2ccnc3[nH]ccc23)cc1 + CS(=O)(=O)CCNCc1ccc(-c2ccc3ncnc(Nc4ccc(OCc5cccc(F)c5)c(Cl)c4)c3c2)o1 [Lapatinib] (partner 2 µM)", "procedure,_shortened": "(§1)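 Lung cancer cell lines in 1536-well plates were dosed by pin tool the day after seeding, either with one drug alone or with a fixed anchor-drug dose plus five library-drug doses (not always all listed) in √10 steps. After 5 days, cells were fixed and their nuclei stained in one step (final 0.05% Triton X-100, 1% formaldehyde, 1 ug/ml Hoechst), then counted on 4× images. Relative viability is the nuclei count in treated wells divided by that in vehicle wells. Values are medians of duplicate plates.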"}, "[2]": {"compound": "C1CNCCC1C2=CC(=NN2)C3=CC=NC=C3 + CC(C)C[C@H](NC(=O)[C@H](Cc1ccccc1)NC(=O)c1cnccn1)B(O)O [Bortezomib] (partner 0.002 µM)", "procedure,_shortened": "as §1"}, "Tanzisertib + Navitoclax": {"compound": "O[C@H]1CC[C@H](Nc2ncc3nc(Nc4c(F)cc(F)cc4F)n([C@H]4CCOC4)c3n2)CC1 [Tanzisertib] + CC1(C)CCC(c2ccc(Cl)cc2)=C(CN2CCN(c3ccc(C(=O)NS(=O)(=O)c4ccc(N[C@H](CCN5CCOCC5)CSc5ccccc5)c(S(=O)(=O)C(F)(F)F)c4)cc3)CC2)C1 [Navitoclax] (partner 0.5 µM)", "procedure,_shortened": "as §1"}, "[3]": {"compound": "C[C@@H](N)c1ccc(C(=O)Nc2ccnc3[nH]ccc23)cc1 + Nc1nc2[nH]cc(CCc3ccc(C(=O)N[C@@H](CCC(=O)O)C(=O)O)cc3)c2c(=O)[nH]1 [Pemetrexed] (partner 0.2 µM)", "procedure,_shortened": "as §1"}}}
{"cell line": "UMC-11", "values": [{"measurement": "relative viability", "setting": "[1]; first compound 0.04 µM", "result": 1.02}, {"measurement": "relative viability", "setting": "[1]; first compound 0.1265 µM", "result": 0.974}, {"measurement": "relative viability", "setting": "[1]; first compound 0.4 µM", "result": 1.05}, {"measurement": "relative viability", "setting": "[1]; first compound 1.265 µM", "result": 0.459}, {"measurement": "relative viability", "setting": "[1]; first compound 4 µM", "result": 0.812}, {"measurement": "relative viability", "setting": "[2]; first compound 0.08 µM", "result": 0.643}, {"measurement": "relative viability", "setting": "[2]; first compound 0.8 µM", "result": 0.919}, {"measurement": "relative viability", "setting": "[2]; first compound 2.53 µM", "result": 0.786}, {"measurement": "relative viability", "setting": "[2]; first compound 8 µM", "result": 0.688}, {"measurement": "relative viability", "setting": "Tanzisertib + Navitoclax; first compound 0.08 µM", "result": 0.33}, {"measurement": "relative viability", "setting": "Tanzisertib + Navitoclax; first compound 0.253 µM", "result": 0.319}, {"measurement": "relative viability", "setting": "Tanzisertib + Navitoclax; first compound 0.8 µM", "result": 0.362}, {"measurement": "relative viability", "setting": "Tanzisertib + Navitoclax; first compound 2.53 µM", "result": 0.342}, {"measurement": "relative viability", "setting": "Tanzisertib + Navitoclax; first compound 8 µM", "result": 0.392}, {"measurement": "relative viability", "setting": "[3]; first compound 0.04 µM", "result": 0.915}, {"measurement": "relative viability", "setting": "[3]; first compound 0.1265 µM", "result": 0.889}, {"measurement": "relative viability", "setting": "[3]; first compound 0.4 µM", "result": 0.955}, {"measurement": "relative viability", "setting": "[3]; first compound 1.265 µM", "result": 0.764}, {"measurement": "relative viability", "setting": "[3]; first compound 4 µM", "result": 0.498}]}
